Source: the supplement of paper PMC13380429

How the values were obtained:
Details in all cases: 72 h
Caco-2 [1] = experiment: cell viability relative to DMSO; higher = less toxic
Calu-3 [2] = experiment: as above
HepG2 [3] = experiment: as above
U2OS [4] = experiment: as above
Caco-2 [5] = experiment: relative viability EC50 (midpoint between 100% and the lowest measured viability); higher = less toxic
Calu-3 [6] = experiment: as above
HepG2 [7] = experiment: as above
U2OS [8] = experiment: as above
Caco-2 [9] = experiment: drug sensitivity score (DSS) for viability; higher = more toxic; extreme values may be limits of the assay
Calu-3 [10] = experiment: as above
HepG2 [11] = experiment: as above
U2OS [12] = experiment: as above
Vero E6 = experiment: as above

COC(=O)N[C@H](C(=O)N1CCC[C@H]1c1ncc(-c2ccc(-c3ccc(-c4cnc([C@@H]5CCCN5C(=O)[C@@H](NC(=O)OC)C(C)C)[nH]4)cc3)cc2)[nH]1)C(C)C [daclatasvir]
cell viability (Caco-2 [1]; 1 nM): 104%
cell viability (Caco-2 [1]; 10 nM): 96.1%
cell viability (Caco-2 [1]; 100 nM): 107%
cell viability (Caco-2 [1]; 1000 nM): 98.7%
cell viability (Caco-2 [1]; 10000 nM): 83.1%
cell viability (Calu-3 [2]; 1 nM): 107%
cell viability (Calu-3 [2]; 10 nM): 90.6%
cell viability (Calu-3 [2]; 100 nM): 93.1%
cell viability (Calu-3 [2]; 1000 nM): 96.1%
cell viability (Calu-3 [2]; 10000 nM): 99.7%
cell viability (HepG2 [3]; 1 nM): 120%
cell viability (HepG2 [3]; 10 nM): 116%
cell viability (HepG2 [3]; 100 nM): 112%
cell viability (HepG2 [3]; 1000 nM): 106%
cell viability (HepG2 [3]; 10000 nM): 92%
cell viability (U2OS [4]; 1 nM): 104%
cell viability (U2OS [4]; 10 nM): 101%
cell viability (U2OS [4]; 100 nM): 101%
cell viability (U2OS [4]; 1000 nM): 102%
cell viability (U2OS [4]; 10000 nM): 90.3%
relative viability EC50 (Caco-2 [5]): > 10 µM
relative viability EC50 (Calu-3 [6]): > 10 µM
relative viability EC50 (HepG2 [7]): > 10 µM
relative viability EC50 (U2OS [8]): > 10 µM
drug sensitivity score (Caco-2 [9]): 0.5
drug sensitivity score (Calu-3 [10]): 0
drug sensitivity score (HepG2 [11]): 0
drug sensitivity score (U2OS [12]): 0

CN1C[C@@H]2C[C@H]1CN2c1cc2c(cc1F)c(=O)c(C(=O)O)cn2C1CC1 [danofloxacin]
drug sensitivity score (Calu-3 [10]): 0
drug sensitivity score (HepG2 [11]): 0
drug sensitivity score (U2OS [12]): 0
drug sensitivity score (Vero E6): 0

CCCCCCCCCC(=O)OC1(c2ccc(Cl)cc2)CCN(CCCC(=O)c2ccc(F)cc2)CC1 [haloperidol-decanoate]
cell viability (Caco-2 [1]; 1 nM): 104%
cell viability (Caco-2 [1]; 10 nM): 104%
cell viability (Caco-2 [1]; 100 nM): 104%
cell viability (Caco-2 [1]; 1000 nM): 93.5%
cell viability (Caco-2 [1]; 10000 nM): 105%
cell viability (Calu-3 [2]; 1 nM): 103%
cell viability (Calu-3 [2]; 10 nM): 105%
cell viability (Calu-3 [2]; 100 nM): 112%
cell viability (Calu-3 [2]; 1000 nM): 99.8%
cell viability (Calu-3 [2]; 10000 nM): 114%
cell viability (HepG2 [3]; 1 nM): 112%
cell viability (HepG2 [3]; 10 nM): 108%
cell viability (HepG2 [3]; 100 nM): 106%
cell viability (HepG2 [3]; 1000 nM): 112%
cell viability (HepG2 [3]; 10000 nM): 97.1%
cell viability (U2OS [4]; 1 nM): 107%
cell viability (U2OS [4]; 10 nM): 101%
cell viability (U2OS [4]; 100 nM): 104%
cell viability (U2OS [4]; 1000 nM): 101%
cell viability (U2OS [4]; 10000 nM): 99.2%
relative viability EC50 (Caco-2 [5]): > 10 µM
relative viability EC50 (Calu-3 [6]): > 10 µM
relative viability EC50 (HepG2 [7]): > 10 µM
relative viability EC50 (U2OS [8]): > 10 µM
drug sensitivity score (Caco-2 [9]): 0
drug sensitivity score (Calu-3 [10]): 0
drug sensitivity score (HepG2 [11]): 0
drug sensitivity score (U2OS [12]): 0

O=P1(NCCCl)OCCCN1CCCl (centres undefined) [ifosfamide]
cell viability (Caco-2 [1]; 1 nM): 104%
cell viability (Caco-2 [1]; 10 nM): 107%
cell viability (Caco-2 [1]; 100 nM): 94.1%
cell viability (Caco-2 [1]; 1000 nM): 95.4%
cell viability (Caco-2 [1]; 10000 nM): 101%
cell viability (Calu-3 [2]; 1 nM): 95.2%
cell viability (Calu-3 [2]; 10 nM): 104%
cell viability (Calu-3 [2]; 100 nM): 97.7%
cell viability (Calu-3 [2]; 1000 nM): 95.5%
cell viability (Calu-3 [2]; 10000 nM): 88.7%
cell viability (HepG2 [3]; 1 nM): 107%
cell viability (HepG2 [3]; 10 nM): 98.1%
cell viability (HepG2 [3]; 100 nM): 95.9%
cell viability (HepG2 [3]; 1000 nM): 102%
cell viability (HepG2 [3]; 10000 nM): 109%
relative viability EC50 (Caco-2 [5]): > 10 µM
relative viability EC50 (Calu-3 [6]): > 10 µM
relative viability EC50 (HepG2 [7]): > 10 µM
drug sensitivity score (Caco-2 [9]): 0
drug sensitivity score (Calu-3 [10]): 0
drug sensitivity score (HepG2 [11]): 0

CC(=O)N(CC(O)CN(C(C)=O)c1c(I)c(C(=O)NCC(O)CO)c(I)c(C(=O)NCC(O)CO)c1I)c1c(I)c(C(=O)NCC(O)CO)c(I)c(C(=O)NCC(O)CO)c1I (centres undefined) [iodixanol]
cell viability (Caco-2 [1]; 1 nM): 96.9%
cell viability (Caco-2 [1]; 10 nM): 102%
cell viability (Caco-2 [1]; 100 nM): 87%
cell viability (Caco-2 [1]; 1000 nM): 102%
cell viability (Caco-2 [1]; 10000 nM): 102%
cell viability (Calu-3 [2]; 1 nM): 88.1%
cell viability (Calu-3 [2]; 10 nM): 107%
cell viability (Calu-3 [2]; 100 nM): 95.9%
cell viability (Calu-3 [2]; 1000 nM): 97.2%
cell viability (Calu-3 [2]; 10000 nM): 96.3%
cell viability (HepG2 [3]; 1 nM): 107%
cell viability (HepG2 [3]; 10 nM): 99.2%
cell viability (HepG2 [3]; 100 nM): 108%
cell viability (HepG2 [3]; 1000 nM): 102%
cell viability (HepG2 [3]; 10000 nM): 105%
cell viability (U2OS [4]; 1 nM): 95.4%
cell viability (U2OS [4]; 10 nM): 101%
cell viability (U2OS [4]; 100 nM): 95.6%
cell viability (U2OS [4]; 1000 nM): 108%
cell viability (U2OS [4]; 10000 nM): 97.5%
relative viability EC50 (Caco-2 [5]): > 10 µM
relative viability EC50 (Calu-3 [6]): > 10 µM
relative viability EC50 (HepG2 [7]): > 10 µM
relative viability EC50 (U2OS [8]): > 10 µM
drug sensitivity score (Caco-2 [9]): 0
drug sensitivity score (Calu-3 [10]): 0
drug sensitivity score (HepG2 [11]): 0
drug sensitivity score (U2OS [12]): 0
